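In this assay, cells in 96-well plates receive the compound at five concentrations for 48 hours. Endpoints are linearly interpolated between the surrounding concentrations. GI50 = concentration required for 50% inhibition of growth. TGI denotes the concentration required for complete inhibition of growth.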
How the values were obtained:
Test in all cases: DTP human tumour cell line panel, 48 h
RXF 393 renal = test system: RXF 393 renal
SF-268 CNS = test system: SF-268 CNS
MALME-3M melanoma = test system: MALME-3M melanoma
OVCAR-3 ovarian = test system: OVCAR-3 ovarian
A549 NSCLC = test system: A549 NSCLC
KM12 colon = test system: KM12 colon
TK-10 renal = test system: TK-10 renal
HL-60(TB) leukemia = test system: HL-60(TB) leukemia
NCI-H23 lung = test system: NCI-H23 lung
SN12C renal = test system: SN12C renal

| Structure (SMILES) | GI50 (RXF 393 renal) [µM] | TGI (RXF 393 renal) [µM] | GI50 (SF-268 CNS) [µM] | TGI (SF-268 CNS) [µM] | GI50 (MALME-3M melanoma) [µM] | TGI (MALME-3M melanoma) [µM] | GI50 (OVCAR-3 ovarian) [µM] | TGI (OVCAR-3 ovarian) [µM] | GI50 (A549 NSCLC) [µM] | TGI (A549 NSCLC) [µM] | GI50 (KM12 colon) [µM] | TGI (KM12 colon) [µM] | GI50 (TK-10 renal) [µM] | TGI (TK-10 renal) [µM] | GI50 (HL-60(TB) leukemia) [µM] | TGI (HL-60(TB) leukemia) [µM] | GI50 (NCI-H23 lung) [µM] | TGI (NCI-H23 lung) [µM] | GI50 (SN12C renal) [µM] | TGI (SN12C renal) [µM] |
| --- | --- | --- | --- | --- | --- | --- | --- | --- | --- | --- | --- | --- | --- | --- | --- | --- | --- | --- | --- | --- |
| COc1ccc2c(c1)[n+](=O)c(/C=C/C(=O)c1cc(OC)c(OC)c(OC)c1)c(C)n2[O-] | 3.98 | > 100 | 6.11 | 45.6 | 17 | > 100 | 2.04 | 11.7 | 21.5 | > 100 | 14.4 | 60.5 | 8.74 | > 100 | 4.98 | 22.4 | 13.7 | 34 | 6.33 | 48.5 |
| Cc1cc(C)c(-c2c(O)c(Br)c(-c3c(C)cc(C)c(Br)c3C)c(O)c2Br)c(C)c1Br | 2.27 | 7.31 | 3.7 | 16.4 | 1.65 | 5.8 | 2.33 | 10.8 | 2.73 | 11.7 | 3.47 | 13.1 | 3.37 | 13.4 | 1.68 | 9.67 | 3.21 | 11.8 | 2.69 | 15 |
| COC(=O)C1=C(O)c2cc(OC)c(OC)c(OC)c2C(c2ccc3c(c2)OCO3)[C@@H]1C(=O)OC (some centres undefined) | – | 6.26 | – | > 100 | – | > 100 | – | 5.3 | – | > 100 | – | > 100 | – | > 100 | – | 5.49 | – | > 100 | – | > 100 |
| NC(=S)c1cccc(C2Nc3ccccc3O2)c1 (centres undefined) | – | > 100 | – | > 100 | – | > 100 | – | > 100 | – | > 100 | – | > 100 | – | > 100 | – | > 100 | – | > 100 | – | 12.1 |
| CSCc1ncc(-c2ccc(C(F)(F)F)cc2)c(NC2CCCCCC2)n1 | > 10 | > 10 | > 10 | > 10 | > 10 | > 10 | > 10 | > 10 | > 10 | > 10 | > 10 | > 10 | > 10 | > 10 | > 10 | > 10 | > 10 | > 10 | > 10 | > 10 |
| CCOC(=O)c1sc(NC(=O)COc2ccc(/C=C3\CCc4cc(OC)ccc4C3=O)cc2)nc1C | 12 | 29.3 | 11.4 | 26.5 | 1.13 | 12.6 | 11 | 25.8 | 13.1 | 35.8 | 7.13 | 21.5 | 3.34 | 21.4 | 0.294 | 0.949 | 13.7 | 32.4 | 4.66 | 21 |
| CN(C)C(=S)/N=c1\ssc(=Nc2ccccc2)n1-c1ccccc1 | – | 44.3 | – | 98.2 | – | > 100 | – | 28.3 | – | > 100 | – | – | – | 64.4 | – | > 100 | – | > 100 | – | > 100 |
